# According to patent US10690666B2, “Methods and compositions for modulating TH-GM cell function” (National University of Singapore, priority 2014, dated 2020):
# Legend:
# BMDCs = assay: Cytokine expression by bone marrow-derived dendritic cells (BMDCs); type: cell-based, mouse
# From the text: FIGS. 34A-34I depicts GM-CSF mediates proinflammatory cytokine expression by myeloid cells and synovial fibroblasts in arthritic mice. Synovial tissues were dissected from wild-type AIA mice and dissociated into single cell suspensions. (FIG. 34A) Flow cytometry plots depicting the fractionation into different populations based on differential expression of surface markers. (FIG. 34B) The mRNA expression of several proinflammatory cytokines in sorted CD45^+ TCRβ^+ (TCRβ^+ in short), CD45^+ TCRβ^−CD11c^−CD11b^+ (CD11b^+) and CD45^+ TCRβ^−CD11c^+ (CD11c^+) populations was measured by qPCR. The qPCR data were normalized to GAPDH. (FIG. 34C) The mRNA expression of IL-6, IL-1β and TNF-α in sorted Ly6C^hiLy6G^− and Ly6C^loLy6G^hi populations (gated on CD11b^+ cells). The qPCR data were normalized to GAPDH. (FIGS. 34D and 34E) The mRNA expression of IL-6 and IL-1β by BMDMs (FIG. 34D) and BMDCs (FIG. 34E) upon stimulation with 20 ng/ml GM-CSF for 1 h. The qPCR data were normalized to GAPDH. (FIGS. 34F and 34G) BMDMs (FIG. 34F) and BMDCs (FIG. 34G) were stimulated with GM-CSF at indicated concentrations (n=3 per group) for 18 h. The secretion of IL-6 in the culture supernatant was quantified by ELISA. (FIG. 34H) BMDMs were primed with LPS ([…]) in the presence of GM-CSF at indicated concentrations (n=3 per group) for 6 h, followed by stimulation with ATP (5 mM) for 30 min. The secretion of IL-1β in the culture supernatant was quantified by ELISA. (FIG. 34I) Cells were cultured in DMEM medium supplemented with 10% FBS for over 20 days with more than 5 passages to obtain synovial fibroblasts. Synovial fibroblasts were stimulated with GM-CSF (20 ng/ml) for 1 h and harvested for RNA extraction. The mRNA expression of IL-1β was measured by qPCR. The qPCR data were normalized to GAPDH. All data shown represent two independent experiments. *p<0.05, **p<0.01.
# To test the regulatory role of GM-CSF in the expression of IL-6 and IL-1β, bone marrow-derived macrophages (BMDMs) and bone marrow-derived dendritic cells (BMDCs) were cultured, and stimulated with GM-CSF. […]
# neutrophils = assay: In vitro neutrophil transmigration assay; type: cell-based, mouse; conditions: as chemoattractant; 3 h
# Procedure: FIGS. 33A-33C depicts GM-CSF enhances neutrophil transmigration and delay apoptosis in vitro. (FIG. 33A) Percentages of migrated neutrophils with or without GM-CSF as chemoattractant in transmigration assay at 3 h post start. (FIG. 33B) Microscopic images of CFSE-labeled neutrophils in the bottom of the lower chamber in transmigration assay. (FIG. 33C) Sorted neutrophils were cultured in vitro with or without GM-CSF (20 ng/ml) for 24 h. Neutrophils undergoing apoptosis were examined by Annexin V and propidium iodide (PI) co-staining. A representative flow cytometry of three repeats was shown. *p<0.05.
# Neutrophils are recruited during inflammation, in which complex interactions between neutrophils and vascular endothelial cells direct neutrophil adhesion and transmigration from circulation to inflamed tissues (Kolaczkowska and Kubes, 2013). […] Effective neutrophil apoptosis is crucial for the resolution of inflammation. However, in synovitis, neutrophil apoptosis is delayed with a result of extended survival and persistent inflammation (Wright et al., 2014). […] To determine the critical role of neutrophils in AIA, \ neutralizing antibody (1A8) specific for Ly6G was used to deplete neutrophils in vivo. […] Thus, neutrophils accumulation mediated by TH-cell-derived GM-CSF are important for AIA development.
substance,measurement,setting,value
GM-CSF: granulocyte macrophage colony-stimulating factor (ImmunoTools) given intraarticularly or added to cell cultures,mRNA expression of IL-6 and IL-1β in BMDCs,"BMDCs; 20 ng/ml, 1 h",quickly upregulated
same,secretion of IL-6 from BMDCs,"BMDCs; 18 h, ELISA",markedly increased
same,TNF-α expression in BMDCs,BMDCs; data not shown,not observed
same,neutrophil adhesion and migration across monolayers of endothelial cells,neutrophils,significantly enhanced
